Experiment [1] has as its system GABA binding site / benzodiazepine binding site. The note with it: Tallman et al. 1978; cited from earlier work.
In a further experiment the target is GABAa receptor. Kind of experiment: GABAa receptor binding activity ([3H]-RO15-1788 displacement, rat cortical tissue). The note with it: 0.5 nM [3H]-RO15-1788, 30 min at 4° C., nonspecific with 1.0 μM diazepam. As for the experimental part: The pharmaceutical utility of compounds of this invention are indicated by the following assay for GABAa receptor binding activity.
Assays are carried out as described in Thomas and Tallman (J. Bio. Chem. 156:9838-9842, J. Neurosci. 3:433-440, 1983). Rat conical tissue is dissected and homogenized in 25 volumes (w/v) of 0.05M Tris HCl buffer (pH 7.4 at 4° C.). The tissue homogenate is centrifuged in the cold (4°) at 20,000×g for 20'. The supernatant is decanted and the pellet is rehomogenized in the same volume of buffer and again centrifuged at 20,000×g. The supernatant is decanted and the pellet is frozen at -20° C. overnight. The pellet is then thawed and rehomogenized in 25 volume (original wt/vol) of buffer and the procedure is carried out twice. The pellet is finally resuspended in 50 volumes (w/vol of 0.05M Tris HCl buffer (pH 7.4 at […]).
Incubations contain 100 μl of tissue homogenate, 100 μl of radioligand 0.5 nM (^3 H-RO15 -1788 [^3 H-Flumazenil] specific activity 80 Ci/mmol), drug or blocker and buffer to a total volume of 500 μl. Incubations are carried for 30 min at 4° C. then are rapidly filtered through GFB filters to separate free and bound ligand. Filters are washed twice with fresh 0.05M Tris HCl buffer (pH 7.4 at 4° C.) and counted in a liquid scintillation counter. 1.0 μM diazepam is added to some tubes to determine nonspecific binding. Data are collected in triplicate determinations, averaged and % inhibition of total specific binding is calculated. Total Specific Binding=Total-Nonspecific. In sonic cases, the amounts of unlabeled drugs is varied and total displacement curves of binding are carried out. Data are converted to a form for the calculation of IC50 and Hill Coefficient (nH).

The source of these data is patent US5610299A (priority 1995, dated 1997).

Structures are written as SMILES.

Take `CN1CCc2cc3c(cc2C1C1OC(=O)c2c1ccc1c2OCO1)OCO3` (single isomer, unassigned; (+)) [(+) bicuculline]: in experiment [1], the “block of enhancement of benzodiazepine binding by GABA agonists” value is reported as “blocked”. With `CN1CCc2cc3c(cc2C1C1OC(=O)c2c1ccc1c2OCO1)OCO3` (single isomer, unassigned; (-)) [(-) bicuculline], in experiment [1], the “block of enhancement of benzodiazepine binding by GABA agonists” value is “much less active”. With `COc1ccc(-c2ncc3[nH]c4ccccc4n3c2=O)cc1` [Compound 1, 2-(4-Methoxyphenyl)-benzimidazo[1,2-a]pyrazin-1(5H)-one], on GABAa receptor, the IC50 – broadly, the concentration that inhibits the measured activity by half – is 15 nM.

For `COc1ccc(F)c(-c2ncc3[nH]c4ccccc4n3c2=O)c1` [Compound 2, 2-(2-Fluoro-5-methoxyphenyl)-benzimidazo[1,2-a]pyrazin-1(5H)-one], the IC50 at GABAa receptor was determined as 167 nM. At GABAa receptor, `O=c1c(-c2ccccc2)ncc2[nH]c3ccccc3n12` [Compound 3, 2-Phenyl-benzimidazo[1,2-a]pyrazin-1(5H)-one] displayed an IC50 of 93 nM. The same measure, in the same setting: under `COc1cccc(-c2ncc3[nH]c4ccccc4n3c2=O)c1` [Compound 4] stands 61 nM.
